Activity calls are given as the source filed them. The calls are words filed in the database; no cut-off is given here.
Assays:
Dopamine receptor [1] = target: T1, Dopamine receptor (Bos taurus, UniProt Q95136+P20288); assay: Inhibitory binding activity against dopamine receptor using [3H]spiperone as the radioligand in striatal tissue of calf brain.; assay type: tissue-based, Striatum
Felis catus [2] = assay: Inhibition of the positive chronotropic effect of stimulation of the cardioaccelerator nerve in the anesthetized cat.; assay type: functional, organism-based
Dopamine receptor [3] = target: T1, Dopamine receptor; assay: Inhibitory binding activity against dopamine receptor using [3H]ADTN as the radioligand in striatal tissue of calf brain.; assay type: tissue-based, Striatum
Felis catus [4] = assay: The compounds were evaluated for their ability to inhibit the positive chronotropic effect of stimulation of the cardioaccelerator nerve in the anesthetized cat; assay type: functional; conditions: read-out: ID50 (the source's name)
Felis catus [5] = organism: Felis catus; assay: The compound was evaluated for its ability to inhibit the positive chronotropic effect of the cardioaccelerator; assay type: functional; conditions: read-out: ID50 (the source's name)
[6] = The compound was tested for its emetic activity in dog, activity expressed as potency ratio.; assay type: functional
Felis catus [7] = organism: Felis catus; assay: Inhibition of positive chronotropic effect of the cardioaccelerator was determined; assay type: functional; conditions: read-out: ID50 (the source's name)
Dopamine receptor [8] = target: T1, Dopamine receptor; assay: Inhibitory binding activity against dopamine receptor using [3H]ADTN as the radioligand in striatal tissue of calf brain; assay type: tissue-based, Striatum
Dopamine receptor [9] = target: T1, Dopamine receptor; assay: Inhibitory binding activity against dopamine receptor using [3H]spiperone as the radioligand in striatal tissue of calf brain; assay type: tissue-based, Striatum
Canis familiaris = assay: Effective dose for emetic activity after administration to dog; assay type: functional; conditions: Canis lupus familiaris

SMILES	IC50 (Dopamine receptor [1]) [µM]	ID50 (Felis catus [2])	also measured
Br.CN(C)C1Cc2cc(O)c(O)cc2C1	104	Increased heart rate	IC50 (Dopamine receptor [3]): 6 µM
CCCNC1Cc2ccc(OC)c(OC)c2C1.Cl (configuration not stated)	105	inactive	IC50 (Dopamine receptor [3]): 51000 µM
CNC1Cc2cc(OC)c(OC)cc2C1	–	inactive	–
NC1Cc2cc(O)c(O)cc2C1	–	Increased heart rate at 3umol/kg	–
CC(C)NC1Cc2ccc(O)c(O)c2C1 (configuration not stated)	–	inactive	–
CN1C[C@H](CC#N)C[C@@H]2c3cccc4[nH]c(Cl)c(c34)C[C@H]21 [LERGOTRILE]	23.7	–	ED50 (Felis catus [4]): 0.27 µmol/kg; IC50 (Dopamine receptor [3]): 4.5 µM
CCCN(CCC)C1Cc2cc(OC)c(OC)cc2C1.Cl	10.4	inactive	–
Br.CCCN(CCC)C1Cc2ccc(O)c(O)c2C1 (configuration not stated)	53.86	–	ED50 (Felis catus [5]): 0.02 µmol/kg; Potency ratio [6]: 1.24; IC50 (Dopamine receptor [3]): 10 µM
NCCc1ccc(O)c(O)c1 [DOPAMINE]	–	–	ED50 (Felis catus [7]): 0.105 µmol/kg
CCCNC1Cc2ccc(O)c(O)c2C1 (configuration not stated)	–	inactive	–
CCNC1Cc2ccc(OC)c(OC)c2C1 (configuration not stated)	–	inactive	–
COc1ccc2c(c1OC)CC(N)C2 (configuration not stated)	–	inactive	–
COc1ccc2c(c1OC)CC(N(C)C)C2 (configuration not stated)	100	inactive	IC50 (Dopamine receptor [3]): 2300 µM
CNC1Cc2cc(O)c(O)cc2C1	–	Increased heart rate at 3umol/kg	–
COc1cc2c(cc1OC)CC(N(C)C)C2.Cl	50	inactive	IC50 (Dopamine receptor [3]): 400 µM
CC(C)N(C)C1Cc2cc(O)c(O)cc2C1	–	Increased heart rate at 3umol/kg	–

SMILES	IC50 (Dopamine receptor [1]) [µM]	ID50 (Felis catus [2])	also measured
CCNC1Cc2ccc(O)c(O)c2C1 (configuration not stated)	–	–	ED50 (Felis catus [7]): > 1 µmol/kg
COc1cc2c(cc1OC)CC(N(C)C(C)C)C2	–	inactive	–
CNC1Cc2ccc(O)c(O)c2C1 (configuration not stated)	–	Increased heart rate at 3umol/kg	–
CCN(CC)C1Cc2cc(OC)c(OC)cc2C1	–	inactive	–
Br.CCN(CC)C1Cc2ccc(OC)c(OC)c2C1 (configuration not stated)	29	inactive	IC50 (Dopamine receptor [3]): 1660 µM
CC(C)NC1Cc2cc(O)c(O)cc2C1	–	Increased heart rate at 3umol/kg	–
CNC1Cc2ccc(OC)c(OC)c2C1 (configuration not stated)	–	inactive	–
Br.CN(C)C1Cc2ccc(O)c(O)c2C1 (configuration not stated)	–	Increased heart rate	IC50 (Dopamine receptor [8]): 10 µM; IC50 (Dopamine receptor [9]): 91 µM
NC1Cc2ccc(O)c(O)c2C1 (configuration not stated)	–	Increased heart rate at 3umol/kg	–
COc1cc2c(cc1OC)CC(NC(C)C)C2	–	inactive	–
Br.CCN(CC)C1Cc2ccc(O)c(O)c2C1 (configuration not stated)	220	–	ED50 (Felis catus [5]): 0.05 µmol/kg; Potency ratio [6]: 0.26; IC50 (Dopamine receptor [3]): 39 µM
Br.CCCN(CCC)C1Cc2cc(O)c(O)cc2C1	17.6	–	ED50 (Felis catus [7]): > 3 µmol/kg; IC50 (Dopamine receptor [3]): 412 µM
COc1cc2c(cc1OC)CC(N)C2	–	inactive	–
COc1ccc2c(c1OC)CC(NC(C)C)C2 (configuration not stated)	–	inactive	–
Br.CCN(CC)C1Cc2cc(O)c(O)cc2C1	246	Increased heart rate	–
CN1CCc2cccc3c2[C@H]1Cc1ccc(O)c(O)c1-3 [APOMORPHINE]	–	–	ED50 (Felis catus [7]): 0.022 µmol/kg; ED50 (Canis familiaris): 0.07 mg/kg

From ChEMBL document CHEMBL1121984 (J Med Chem, 1982)
